Assay results published in publication PMC8160793, “Potent Antimicrobial and Antibiofilm Activities of Feleucin-K3 Analogs Modified by α-(4-Pentenyl)-Ala against Multidrug-Resistant Bacteria” (Biomolecules, 2021).
Square brackets hold non-standard residues; d marks the D form. Peptide text beside a SMILES is read from it. ξ: configuration not given here. ξαMeGly(pent-4-enyl) = C=CCCCC(C)(N)C(=O)O

What was measured:
E. coli ATCC 25922 = assay type: cell-based; conditions: ATCC 25922, 18 h
Protocol: (§1) The minimum inhibitory concentration (MIC) of the Feleucin-K3 analogs was tested by the broth microdilution method. Sensitive bacteria and drug-resistant bacteria were diluted to 1 × 10^6 CFU/mL, according to the McFarland standards. Bacterial suspension and peptide solutions (8–128 μg/mL) were incubated at 37 °C for 18 h. The minimum concentration without obvious bacterial growth was the MIC of the peptides. The stability of the analogs in a physiological salt environment was also investigated. In brief, salt powder (450-mM NaCl) was dissolved in deionized water, and the following investigational steps were the same as those described before. The above steps were repeated several times, until the same value was obtained three times.

MRSA 113 = assay type: cell-based, Staphylococcus aureus; conditions: 113, 18 h
Protocol: as §1

MRSA 23 = assay type: cell-based, Staphylococcus aureus; conditions: 23, 18 h
Protocol: as §1

MRSA 48 = assay type: cell-based, Staphylococcus aureus; conditions: 48, 18 h
Protocol: as §1

MRSA 51 = assay type: cell-based, Staphylococcus aureus; conditions: 51, 18 h
Protocol: as §1

MRSA 52 = assay type: cell-based, Staphylococcus aureus; conditions: 52, 18 h
Protocol: as §1

MRSA 54 = assay type: cell-based, Staphylococcus aureus; conditions: 54, 18 h
Protocol: as §1

MRSA 71 = assay type: cell-based, Staphylococcus aureus; conditions: 71, 18 h
Protocol: as §1

MRSA 74 = assay type: cell-based, Staphylococcus aureus; conditions: 74, 18 h
Protocol: as §1

MRSA 75 = assay type: cell-based, Staphylococcus aureus; conditions: 75, 18 h
Protocol: as §1

MRSA 936 = assay type: cell-based, Staphylococcus aureus; conditions: 936, 18 h
Protocol: as §1

MRSA ATCC 33591 = assay type: cell-based, Staphylococcus aureus; conditions: ATCC 33591, 18 h
Protocol: as §1

S. aureus 725 = assay type: cell-based, Staphylococcus aureus; conditions: 725, 18 h
Protocol: as §1

S. aureus 794 = assay type: cell-based, Staphylococcus aureus; conditions: 794, 18 h
Protocol: as §1

S. aureus ATCC 25923 = assay type: cell-based, Staphylococcus aureus; conditions: ATCC 25923, 18 h
Protocol: as §1

A. baumannii 5444 = assay type: cell-based, Acinetobacter baumannii; conditions: 5444, 18 h
Protocol: as §1

A. baumannii 822144 = assay type: cell-based, Acinetobacter baumannii; conditions: 822144, 18 h
Protocol: as §1

A. baumannii 8309 = assay type: cell-based, Acinetobacter baumannii; conditions: 8309, 18 h
Protocol: as §1

A. baumannii 91105 = assay type: cell-based, Acinetobacter baumannii; conditions: 91105, 18 h
Protocol: as §1

A. baumannii 91152 = assay type: cell-based, Acinetobacter baumannii; conditions: 91152, 18 h
Protocol: as §1

A. baumannii 91199 = assay type: cell-based, Acinetobacter baumannii; conditions: 91199, 18 h
Protocol: as §1

A. baumannii 91869 = assay type: cell-based, Acinetobacter baumannii; conditions: 91869, 18 h
Protocol: as §1

A. baumannii 91944 = assay type: cell-based, Acinetobacter baumannii; conditions: 91944, 18 h
Protocol: as §1

A. baumannii 9236 = assay type: cell-based, Acinetobacter baumannii; conditions: 9236, 18 h
Protocol: as §1

A. baumannii 9331 = assay type: cell-based, Acinetobacter baumannii; conditions: 9331, 18 h
Protocol: as §1

A. baumannii 97830 = assay type: cell-based, Acinetobacter baumannii; conditions: 97830, 18 h
Protocol: as §1

A. baumannii 9828 = assay type: cell-based, Acinetobacter baumannii; conditions: 9828, 18 h
Protocol: as §1

A. baumannii 9840 = assay type: cell-based, Acinetobacter baumannii; conditions: 9840, 18 h
Protocol: as §1

A. baumannii 9896 = assay type: cell-based, Acinetobacter baumannii; conditions: 9896, 18 h
Protocol: as §1

A. baumannii ATCC 19606 [1] = assay type: cell-based, Acinetobacter baumannii; conditions: ATCC 19606, 18 h
Protocol: as §1

A. baumannii ATCC 19606 [2] = assay type: cell-based, Acinetobacter baumannii; conditions: ATCC 19606, 24 h
Protocol: The antibiofilm activity of the peptides was determined according to the previously described methods. Strains (final concentration of 5 × 10^5 CFU/mL) and peptides (4–128 μg/mL) were incubated for 24 h at 37 °C. Biofilm cells were cleaned with 0.01-M PBS and fixed with methanol. Crystal violet (0.1%, HopeBiol, Qingdao, China) was used to stain the biofilm cells for 10 min. After washing with water, 95% ethanol was finally added, and the optical density at 595 nm was measured with a microplate reader (Flex Station 3; Laguna Hills, CA, USA).

mouse RBCs = experiment: Hemolytic activity; assay type: cell-based; conditions: equal volume of 8% RBC suspension, 1 h, OD 490 nm, Triton X-100 positive control; for hemolysis rate at 128 µg/mL: peptide 128 µg/mL (maximum concentration)
Protocol: Mouse red blood cells (RBCs) were collected using the eyeball removal method to investigate the hemolytic activity of the Feleucin-K3 analogs. Then, these analogs were incubated with the same volume of 8% RBC suspension for 1 h. After centrifugation for 10 min, 100 μL of supernatant was withdrawn, and the optical density at 490 nm was detected. The hemolysis rate of the cells treated with 0.1% Triton X-100 (Solarbio, Beijing, China) was used as a positive control, and PBS was used as a negative control.

C=CCCCC(C)(N)C(=O)N[C@@H](CC(C)C)C(=O)N[C@@H](CCCCN)C(=O)N[C@@H](CC(C)C)C(=O)N[C@@H](CC(C)C)C(=O)N[C@@H](CCCCN)C(=O)N[C@@H](CCCCN)C(=O)N[C@@H](CC(C)C)C(=O)N[C@@H](CC(C)C)C(N)=O (stereo partly shown) [Feleucin-K65] (H-[ξαMeGly(pent-4-enyl)]LKLLKKLL-NH2)
8 µg/mL: MIC, E. coli ATCC 25922 (E. coli ATCC 25922) | MIC, MRSA 113 (MRSA 113) | MIC, MRSA 51 (MRSA 51) | MIC, S. aureus 794 (S. aureus 794) | MIC, S. aureus ATCC 25923 (S. aureus ATCC 25923) | MIC, A. baumannii 822144 (A. baumannii 822144) | MIC, A. baumannii 9331 (A. baumannii 9331) | MBIC50, A. baumannii ATCC 19606 (A. baumannii ATCC 19606 [2]) | MBIC90, A. baumannii ATCC 19606 (A. baumannii ATCC 19606 [2])
4 µg/mL: MIC, MRSA 23 (MRSA 23) | MIC, MRSA 48 (MRSA 48) | MIC, MRSA 52 (MRSA 52) | MIC, MRSA 54 (MRSA 54) | MIC, MRSA 71 (MRSA 71) | MIC, MRSA 74 (MRSA 74) | MIC, MRSA 75 (MRSA 75) | MIC, MRSA 936 (MRSA 936) | MIC, MRSA ATCC 33591 (MRSA ATCC 33591) | MIC, S. aureus 725 (S. aureus 725) | MIC, A. baumannii 5444 (A. baumannii 5444) | MIC, A. baumannii 8309 (A. baumannii 8309) | MIC, A. baumannii 91105 (A. baumannii 91105) | MIC, A. baumannii 91152 (A. baumannii 91152) | MIC, A. baumannii 91199 (A. baumannii 91199) | MIC, A. baumannii 91869 (A. baumannii 91869) | MIC, A. baumannii 91944 (A. baumannii 91944) | MIC, A. baumannii 9236 (A. baumannii 9236) | MIC, A. baumannii 97830 (A. baumannii 97830) | MIC, A. baumannii 9828 (A. baumannii 9828) | MIC, A. baumannii 9840 (A. baumannii 9840) | MIC, A. baumannii 9896 (A. baumannii 9896) | MIC, A. baumannii ATCC 19606 (A. baumannii ATCC 19606 [1])
31.6%: hemolysis rate at 128 µg/mL (mouse RBCs)
9.08%: hemolysis rate at 64 µg/mL (mouse RBCs; peptide 64 µg/mL)

C=CCCCC(C)(NC(=O)[C@H](CC(C)C)NC(=O)[C@H](CCCCN)NC(=O)[C@H](CCCCN)NC(=O)[C@H](CC(C)C)NC(=O)[C@H](CC(C)C)NC(=O)[C@H](CCCCN)NC(=O)[C@H](CC(C)C)NC(=O)[C@@H](N)Cc1ccccc1)C(N)=O (stereo partly shown) [Feleucin-K70] (H-FLKLLKKL[ξαMeGly(pent-4-enyl)]-NH2)
less than 1%: hemolysis rate at 128 µg/mL (mouse RBCs)
4 µg/mL: MIC, A. baumannii 91105 (A. baumannii 91105) | MIC, A. baumannii 9896 (A. baumannii 9896)
8 µg/mL: MIC, E. coli ATCC 25922 (E. coli ATCC 25922) | MIC, MRSA 113 (MRSA 113) | MIC, MRSA 23 (MRSA 23) | MIC, MRSA 48 (MRSA 48) | MIC, MRSA 51 (MRSA 51) | MIC, MRSA 52 (MRSA 52) | MIC, MRSA 54 (MRSA 54) | MIC, MRSA 71 (MRSA 71) | MIC, MRSA 74 (MRSA 74) | MIC, MRSA 75 (MRSA 75) | MIC, MRSA 936 (MRSA 936) | MIC, MRSA ATCC 33591 (MRSA ATCC 33591) | MIC, S. aureus 725 (S. aureus 725) | MIC, S. aureus 794 (S. aureus 794) | MIC, S. aureus ATCC 25923 (S. aureus ATCC 25923) | MIC, A. baumannii 5444 (A. baumannii 5444) | MIC, A. baumannii 822144 (A. baumannii 822144) | MIC, A. baumannii 8309 (A. baumannii 8309) | MIC, A. baumannii 91152 (A. baumannii 91152) | MIC, A. baumannii 91199 (A. baumannii 91199) | MIC, A. baumannii 91869 (A. baumannii 91869) | MIC, A. baumannii 91944 (A. baumannii 91944) | MIC, A. baumannii 9236 (A. baumannii 9236) | MIC, A. baumannii 97830 (A. baumannii 97830) | MIC, A. baumannii 9828 (A. baumannii 9828) | MIC, A. baumannii 9840 (A. baumannii 9840) | MIC, A. baumannii ATCC 19606 (A. baumannii ATCC 19606 [1]) | MBIC50, A. baumannii ATCC 19606 (A. baumannii ATCC 19606 [2])
16 µg/mL: MIC, A. baumannii 9331 (A. baumannii 9331) | MBIC90, A. baumannii ATCC 19606 (A. baumannii ATCC 19606 [2])
